Entries after “also recorded” stand apart in the source; their conditions may differ.
What was measured:
MAO-B = biological target: T1, MAO-B (Homo sapiens, UniProt P27338); test: Biochemical activity, MAO-B; conditions: all single dose levels (1-10 mg)
T1 sequence (P27338 1-520): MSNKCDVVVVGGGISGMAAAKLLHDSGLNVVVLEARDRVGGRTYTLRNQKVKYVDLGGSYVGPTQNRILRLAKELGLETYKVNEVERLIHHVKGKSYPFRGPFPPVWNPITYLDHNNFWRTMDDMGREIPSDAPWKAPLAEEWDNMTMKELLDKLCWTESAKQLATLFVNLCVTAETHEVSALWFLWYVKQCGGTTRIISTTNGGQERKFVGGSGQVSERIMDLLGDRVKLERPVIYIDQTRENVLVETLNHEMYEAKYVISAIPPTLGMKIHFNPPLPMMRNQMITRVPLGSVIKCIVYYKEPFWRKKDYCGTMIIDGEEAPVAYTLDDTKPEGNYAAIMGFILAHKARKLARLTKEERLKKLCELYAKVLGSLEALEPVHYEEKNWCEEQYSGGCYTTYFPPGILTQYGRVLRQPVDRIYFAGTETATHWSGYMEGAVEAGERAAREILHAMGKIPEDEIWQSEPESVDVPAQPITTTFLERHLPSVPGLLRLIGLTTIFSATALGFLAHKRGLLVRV

plasma methylamine [1] = test: Single-ascending dose trial, plasma methylamine (MMA); format: in vivo, human; conditions: single dose 1-10 mg
Protocol: (§1) Safety was assessed for 7 (±3) days after dosing.

[2] = Multiple-ascending dose clinical trial, safety; format: in vivo, human
Protocol: (§2) A multiple-ascending dose clinical trial of Compound 1 was performed.

[3] = NASH patient study Part 1, safety; format: in vivo, human; conditions: 10 mg QD 12 weeks, NASH patients
Protocol: (§3) Part 1 interim analysis primary endpoint was safety assessed by adverse events (AEs) and laboratory tests; percent change from baseline (BL) in plasma VAP-1 activity was a secondary endpoint. Exploratory imaging and blood-based biomarkers of liver inflammation and fibrosis were also assessed. Analyses of change (or percent change) from baseline used an ANCOVA model with change (or percent change) from baseline as the dependent variable including treatment group and randomization strata as fixed effects and baseline as a covariate.

plasma SSAO [4] = biological target: T2, plasma SSAO (Homo sapiens, UniProt Q16853); test: Single-ascending dose trial, plasma SSAO / amine oxidase activity; format: in vivo
T2 construct: from tissue; host or cells: human plasma
T2 sequence (Q16853 29-763 limits assumed): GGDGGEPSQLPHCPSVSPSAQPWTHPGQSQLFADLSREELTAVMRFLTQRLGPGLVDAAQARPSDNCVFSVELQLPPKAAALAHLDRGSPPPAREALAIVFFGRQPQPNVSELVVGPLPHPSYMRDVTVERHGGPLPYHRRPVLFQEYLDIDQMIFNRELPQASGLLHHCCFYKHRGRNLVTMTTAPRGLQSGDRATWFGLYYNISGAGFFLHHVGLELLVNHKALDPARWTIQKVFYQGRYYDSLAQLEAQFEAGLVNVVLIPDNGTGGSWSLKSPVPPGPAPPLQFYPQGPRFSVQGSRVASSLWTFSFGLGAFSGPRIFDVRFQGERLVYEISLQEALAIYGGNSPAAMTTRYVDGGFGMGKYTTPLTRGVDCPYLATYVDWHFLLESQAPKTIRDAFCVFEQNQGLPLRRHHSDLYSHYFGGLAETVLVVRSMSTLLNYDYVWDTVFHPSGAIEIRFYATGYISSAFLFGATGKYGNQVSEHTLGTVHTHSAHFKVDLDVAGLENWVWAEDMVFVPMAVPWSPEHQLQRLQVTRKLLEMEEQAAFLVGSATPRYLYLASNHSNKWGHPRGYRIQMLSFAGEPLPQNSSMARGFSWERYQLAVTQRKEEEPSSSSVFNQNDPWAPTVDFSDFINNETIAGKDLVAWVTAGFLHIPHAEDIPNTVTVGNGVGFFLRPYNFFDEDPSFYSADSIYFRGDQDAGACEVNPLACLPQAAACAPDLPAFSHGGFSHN
Protocol: as §1
(§4) Plasma PK parameters were determined by non-compartmental analysis.
SSAO-specific amine oxidase levels in plasma were determined using a kinetic-based assay essentially as described previously (Schilter et al). Endogenous monoamine oxidases A and B were inhibited by adding pargyline to plasma samples prior to measuring H2O2 generation levels in placebo and active recipients.

rat model of NASH = test: Rat model of NASH; format: in vivo
plasma SSAO [5] = biological target: T2, plasma SSAO; test: Multiple-ascending dose trial, plasma SSAO / amine oxidase activity; format: in vivo
Protocol: as §2

[6] = Multiple-ascending dose clinical trial, plasma PK; format: in vivo, human
Protocol: as §2

plasma methylamine [7] = test: Multiple-ascending dose trial, plasma methylamine; format: in vivo, human
Protocol: as §2

MAO-A = biological target: T3, MAO-A (Homo sapiens, UniProt P21397); test: Biochemical activity, MAO-A; conditions: all single dose levels (1-10 mg)
T3 sequence (P21397 1-527): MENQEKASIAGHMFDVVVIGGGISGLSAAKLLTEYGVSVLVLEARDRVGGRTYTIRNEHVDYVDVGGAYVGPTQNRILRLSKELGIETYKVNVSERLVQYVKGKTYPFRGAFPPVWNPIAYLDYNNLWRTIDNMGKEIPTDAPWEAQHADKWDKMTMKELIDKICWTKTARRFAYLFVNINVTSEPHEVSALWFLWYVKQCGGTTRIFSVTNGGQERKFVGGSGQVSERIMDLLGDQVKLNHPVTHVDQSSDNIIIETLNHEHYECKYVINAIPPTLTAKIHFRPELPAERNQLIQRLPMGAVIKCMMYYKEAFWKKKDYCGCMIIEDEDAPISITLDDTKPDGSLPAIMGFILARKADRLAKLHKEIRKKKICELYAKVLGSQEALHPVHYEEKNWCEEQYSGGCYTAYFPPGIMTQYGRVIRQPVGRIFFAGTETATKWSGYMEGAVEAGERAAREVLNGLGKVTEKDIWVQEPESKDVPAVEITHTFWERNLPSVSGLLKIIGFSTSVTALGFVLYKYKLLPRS

[8] = Single-ascending dose clinical trial, plasma PK; format: in vivo, human; conditions: for plasma PK exposure increase with dose: single dose, between 3 and 10 mg
Protocol: as §1, §4

plasma VAP-1 = biological target: T4, plasma VAP-1 (Homo sapiens, UniProt Q16853); test: NASH patient study Part 1, plasma VAP-1 activity; format: in vivo; conditions: 10 mg QD, through week 12
T4 construct: from tissue; host or cells: human plasma
T4 sequence (Q16853 29-763 limits assumed): T2 sequence (Q16853 29-763 limits assumed)
Protocol: as §3

[9] = test system: NASH and inflammation biomarkers; test: NASH patient study Part 1, imaging and blood biomarkers of liver inflammation and fibrosis; format: in vivo, human
Protocol: Plasma samples are collected for measurement of plasma concentrations of study drug and metabolites. Urine samples are collected for measurement of urine concentrations of study drug and metabolites. Patients who are not participating in the PK/PD sub-study undergo trough PK sampling only. Blood collection for NASH/fibrosis markers (CK-18 (M30 and M65), PIIINP, TIMP-1, HA, PRO-C3, and C3M) and inflammation markers (hs-CRP, IL-6, ICAM-1, and VCAM-1) are also conducted. The following exploratory fibrosis scores may also be calculated: FIB-4, enhanced liver fibrosis (ELF), and NAFLD. The PRO-C3/C3M ratio may be calculated. Patients are monitored for adverse events.
as §3

[10] = Single-ascending dose clinical trial, safety; format: in vivo, human; conditions: single dose 6 mg or placebo (n = 8)
Protocol: as §1

[11] = 1, 4 mg QD 7 days, 10 mg QD 14 days

COC1CCN(c2ncc(OC/C(=C/F)CN)cn2)CC1 [Compound 1, (E)-3-fluoro-2-(((2-(4-methoxypiperidin-1-yl)pyrimidin-5-yl)oxy)methyl)prop-2-en-1-amine]
Cmax relative to IC50 for MAO-B (times lower) (MAO-B): more than 800 times
plasma methylamine (MMA) levels (plasma methylamine [1]): increased; also recorded: Dose-dependent increases
discontinuation due to an adverse event [2, 11]: No subject discontinued
severity of adverse events [2, 11]: mild (grade 1)
safety and tolerability (laboratory, vital signs, ECG) ([2]; up to 10 mg QD for 14 days, healthy subjects): no notable findings; also recorded: safe and well tolerated
severity of AEs [3]: mild or moderate
tolerability [3]: well-tolerated
duration of SSAO activity inhibition after a single dose (plasma SSAO [4]; single dose 1 mg to 10 mg): up to seven days
duration of suppression of plasma SSAO amine oxidase activity after a single dose (plasma SSAO [4]; single dose 1-10 mg): up to 1 week
liver inflammation and fibrosis (rat model of NASH): decreases liver inflammation and fibrosis
duration of near complete inhibition of plasma SSAO amine oxidase activity after cessation of dosing (plasma SSAO [5]; after multiple QD doses): up to 2 weeks
inhibition of total amine oxidase (plasma SSAO [5]; plasma, single and multiple doses): incomplete
plasma PK exposure increases between dose groups ([6]; Day 1, 1, 4, 10 mg): greater than dose proportional
accumulation after multiple QD doses ([6]; each dose level): significant accumulation
plasma methylamine levels (plasma methylamine [7]; Day 1): increased in a dose proportional manner
plasma methylamine levels (plasma methylamine [7]; last day of administration, after multiple doses): further increases
Cmax relative to IC50 for MAO-A (times lower) (MAO-A): more than 800 times
plasma PK exposure increase with dose [8]: greater than dose proportional
inhibition of plasma VAP-1 activity (plasma VAP-1): sustained suppression; also recorded: near complete inhibition
changes in cT1 from baseline to end of treatment ([9]; 10 mg QD 12 weeks): no significant changes
difference from placebo in change from BL cT1, liver fat fraction, liver enzymes, or cytokeratin-18 ([9]; 10 mg QD 12 weeks): no statistically significant differences
ICAM-1 decrease relative to BL, mean (±SE) ([9]; 10 mg QD, Week 8): 34.85 (56.03) μg/L
TIMP-1 decrease relative to BL, mean (±SE) ([9]; 10 mg QD, Week 12): 29.58 (9.26) ng/ml
VCAM-1 decrease relative to BL, mean (±SE) ([9]; 10 mg QD, Week 12): 24.327 (20.5850) μg/L

COC1CCN(c2ncc(OC/C(=C/F)CN)cn2)CC1.Cc1ccc(S(=O)(=O)O)cc1 [tosylate salt of Compound 1]
Subject incidence of any TEAE [10]: 2 (25)
TEAE frequency: contact dermatitis [10]: 2 (25)
TEAE frequency: sore throat [10]: 1 (12.5)
plasma PK exposure increase with dose [8]: greater than dose proportional
clearance from plasma ([8]; single doses): rapidly cleared from plasma
